Measured values from US11970474B2, “Substituted benzodiazoles and use thereof in therapy” (THOMAS HELLEDAYS STIFTELSE FÖR MEDICINSK FORSKNING, priority 2018, dated 2024).
pIC50: −log10 of the molar value.

Target: OGG1 (Homo sapiens (Human), UniProt O15527)
Assay: In vitro OGG1 activity assay
Assay type: biochemical
Details: 800 pM OGG1 enzyme, 2 nM human APEX1, 10 nM 8-oxoA:C substrate
Outline: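 Fluorescence-release assay on a duplex oligonucleotide carrying an OGG1 substrate base beside a fluorophore, quenched from the complementary strand. Excess APEX1 cleaves the abasic site left by base excision, melting the duplex and unquenching the fluorophore. Compounds in DMSO were dispensed before enzyme and substrate, and fluorescein signal was read.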

Chain of OGG1 (O15527 whole entry): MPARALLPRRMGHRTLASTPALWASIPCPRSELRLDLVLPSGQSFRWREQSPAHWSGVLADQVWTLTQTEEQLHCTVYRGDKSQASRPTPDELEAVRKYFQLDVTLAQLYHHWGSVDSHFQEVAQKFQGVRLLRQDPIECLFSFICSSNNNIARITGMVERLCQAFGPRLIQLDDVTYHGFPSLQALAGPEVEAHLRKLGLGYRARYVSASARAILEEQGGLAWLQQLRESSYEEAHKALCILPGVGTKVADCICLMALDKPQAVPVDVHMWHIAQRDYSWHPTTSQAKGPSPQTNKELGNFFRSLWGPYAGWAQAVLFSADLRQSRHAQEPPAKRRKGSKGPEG

SMILES | pIC50
CNC(=O)c1cccc2c1[nH]c(=O)n2[C@H]1CC[C@@H](C(=O)Nc2ccc(C)c(OC)c2)CC1 [Example 259, N-Methyl-2-oxo-1-[cis-4-[(3-methoxy-4-methylphenyl)carbamoyl]cyclohexyl]-2,3-dihydro-1H-1,3-benzodiazole-4-carboxamide] | 8.40
COc1cc(NC(=O)[C@H]2CC[C@@H](n3c(=O)[nH]c4c(C(=O)N(C)C)cccc43)CC2)ccc1C [Example 260, N,N-Dimethyl-2-oxo-1-[cis-4-[(3-methoxy-4-methylphenyl)carbamoyl]cyclohexyl]-2,3-dihydro-1H-1,3-benzodiazole-4-carboxamide] | 6.46
COc1cc(NC(=O)[C@H]2CC[C@@H](n3c(=O)[nH]c4c(C(=O)N5CCNCC5)cccc43)CC2)ccc1C [Example 261, Cis-N-(3-methoxy-4-methylphenyl)-4-[2-oxo-4-(piperazine-1-carbonyl)-2,3-dihydro-1H-1,3-benzodiazol-1-yl]cyclohexane-1-carboxamide] | 7.17
COc1cc(NC(=O)[C@H]2CC[C@@H](n3c(=O)[nH]c4c(C(=O)NCCCN)cccc43)CC2)ccc1C [Example 265, N-(3-Aminopropyl)-2-oxo-1-[cis-4-[(3-methoxy-4-methylphenyl)carbamoyl]cyclohexyl]-2,3-dihydro-1H-1,3-benzodiazole-4-carboxamide] | 9.55
CNCCN(C)C(=O)c1cccc2c1[nH]c(=O)n2[C@H]1CC[C@@H](C(=O)Nc2ccc(C)c(OC)c2)CC1 [Example 266, N-Methyl-N-[2-(methylamino)ethyl]-2-oxo-1-[cis-4-[(3-methoxy-4-methylphenyl)carbamoyl]cyclohexyl]-2,3-dihydro-1H-1,3-benzodiazole-4-carboxamide] | 8.09
COc1cc(NC(=O)[C@H]2CC[C@@H](n3c(=O)[nH]c4c(C(=O)N5CCN(CCN(C)C)CC5)cccc43)CC2)ccc1C [Example 275, Cis-4-(4-{4-[2-(dimethylamino)ethyl]piperazine-1-carbonyl}-2-oxo-2,3-dihydro-1H-1,3-benzodiazol-1-yl)-N-(3-methoxy-4-methylphenyl)cyclohexane-1-carboxamide] | 6.77
COc1cc(NC(=O)[C@H]2CC[C@@H](n3c(=O)[nH]c4c(C(=O)N5CCCC5C(N)=O)cccc43)CC2)ccc1C (stereo partly drawn) [Example 278, 1-{2-Oxo-1-[cis-4-[(3-methoxy-4-methylphenyl)carbamoyl]cyclohexyl]-2,3-dihydro-1H-1,3-benzodiazole-4-carbonyl}pyrrolidine-2-carboxamide] | 6.65
COc1cc(NC(=O)[C@H]2CC[C@@H](n3c(=O)[nH]c4c(Nc5ncccn5)cccc43)CC2)ccc1C [Example 279, Cis-N-(3-methoxy-4-methylphenyl)-4-{2-oxo-4-[(pyrimidin-2-yl)amino]-2,3-dihydro-1H-1,3-benzodiazol-1-yl}cyclohexane-1-carboxamide] | 7.13
COc1cc(NC(=O)[C@H]2CC[C@@H](n3c(=O)[nH]c4c(NC(=O)CCN)cccc43)CC2)ccc1C [Example 284, Cis-4-[4-(3-aminopropanamido)-2-oxo-2,3-dihydro-1H-1,3-benzodiazol-1-yl]-N-(3-methoxy-4-methylphenyl)cyclohexane-1-carboxamide] | 8.76
COc1cc(NC(=O)[C@H]2CC[C@@H](n3c(=O)[nH]c4c(NC(=O)[C@@H]5CCN5)cccc43)CC2)ccc1C [Example 287, (2S)—N-{2-Oxo-1-[cis-4-[(3-methoxy-4-methylphenyl)carbamoyl]cyclohexyl]-2,3-dihydro-1H-1,3-benzodiazol-4-yl}azetidine-2-carboxamide] | 7.57
COc1cc(NC(=O)[C@H]2CC[C@@H](n3c(=O)[nH]c4c(NC(C)=O)cccc43)CC2)ccc1C [Example 288, Cis-4-(4-acetamido-2-oxo-2,3-dihydro-1H-1,3-benzodiazol-1-yl)-N-(3-methoxy-4-methylphenyl)cyclohexane-1-carboxamide] | 7.64
CC(=O)Nc1cccc2c1[nH]c(=O)n2[C@H]1CC[C@@H](C(=O)Nc2ccc3cc[nH]c3c2)CC1 [Example 290, Cis-4-(4-acetamido-2-oxo-2,3-dihydro-1H-1,3-benzodiazol-1-yl)-N-(1H-indol-6-yl)cyclohexane-1-carboxamide] | 6.62
COc1cc(NC(=O)[C@H]2CC[C@@H](n3c(=O)[nH]c4c(C(N)=O)cccc43)CC2)ccc1C [Example 291, 2-Oxo-1-[cis-4-[(3-methoxy-4-methylphenyl)carbamoyl]cyclohexyl]-2,3-dihydro-1H-1,3-benzodiazole-4-carboxamide] | 8.02
COc1cc(NC(=O)[C@H]2CC[C@@H](n3c(=O)[nH]c4c(C(=O)NCC5COCCN5)cccc43)CC2)ccc1C (stereo partly drawn) [Example 292, N-[(Morpholin-3-yl)methyl]-2-oxo-1-[cis-4-[(3-methoxy-4-methylphenyl)carbamoyl]cyclohexyl]-2,3-dihydro-1H-1,3-benzodiazole-4-carboxamide] | 9.43
COc1cc(NC(=O)[C@H]2CC[C@@H](n3c(=O)[nH]c4c(C(=O)NC5CNC5)cccc43)CC2)ccc1C [Example 293, N-(Azetidin-3-yl)-2-oxo-1-[cis-4-[(3-methoxy-4-methylphenyl)carbamoyl]cyclohexyl]-2,3-dihydro-1H-1,3-benzodiazole-4-carboxamide] | 8.85
COc1cc(NC(=O)[C@H]2CC[C@@H](n3c(=O)[nH]c4c(C(=O)NC5CCNC5)cccc43)CC2)ccc1C (stereo partly drawn) [Example 294, 2-Oxo-N-(pyrrolidin-3-yl)-1-[cis-4-[(3-methoxy-4-methylphenyl)carbamoyl]cyclohexyl]-2,3-dihydro-1H-1,3-benzodiazole-4-carboxamide] | 8.92
COc1cc(NC(=O)[C@H]2CC[C@@H](n3c(=O)[nH]c4c(N5CCC(N)CC5)cccc43)CC2)ccc1C [Example 303, Cis-4-[4-(4-aminopiperidin-1-yl)-2-oxo-2,3-dihydro-1H-1,3-benzodiazol-1-yl]-N-(3-methoxy-4-methylphenyl)cyclohexane-1-carboxamide] | 7.97
COc1cc(NC(=O)[C@H]2CC[C@@H](n3c(=O)[nH]c4c(N5Cc6cn[nH]c6C5)cccc43)CC2)ccc1C [Example 314, Cis-N-(3-methoxy-4-methylphenyl)-4-(2-oxo-4-{1H,4H,5H,6H-pyrrolo[3,4-c]pyrazol-5-yl}-2,3-dihydro-1H-1,3-benzodiazol-1-yl)cyclohexane-1-carboxamide] | 7.25
CC(=O)Nc1cccc2c1[nH]c(=O)n2[C@H]1CC[C@@H](C(=O)Nc2ccc3[nH]ncc3c2)CC1 [Example 315, Cis-4-(4-acetamido-2-oxo-2,3-dihydro-1H-1,3-benzodiazol-1-yl)-N-(1H-indazol-5-yl)cyclohexane-1-carboxamide] | 6.12
COC(=O)NC1CCN(c2cccc3c2[nH]c(=O)n3[C@H]2CC[C@@H](C(=O)Nc3ccc(C)c(OC)c3)CC2)C1 (stereo partly drawn) [Example 316, Methyl N-(1-{2-oxo-1-[cis-4-[(3-methoxy-4-methylphenyl)carbamoyl]cyclohexyl]-2,3-dihydro-1H-1,3-benzodiazol-4-yl}pyrrolidin-3-yl)carbamate] | 7.42
COc1cc(NC(=O)[C@H]2CC[C@@H](n3c(=O)[nH]c4c(N5CCC(NC(=O)C(C)(C)O)C5)cccc43)CC2)ccc1C (stereo partly drawn) [Example 317, Cis-4-{4-[3-(2-hydroxy-2-methylpropanamido)pyrrolidin-1-yl]-2-oxo-2,3-dihydro-1H-1,3-benzodiazol-1-yl}-N-(3-methoxy-4-methylphenyl)cyclohexane-1-carboxamide] | 7.41
COc1cc(NC(=O)[C@H]2CC[C@@H](n3c(=O)[nH]c4c(NC(=O)c5nccn5C)cccc43)CC2)ccc1C [Example 318, 1-Methyl-N-{2-oxo-1-[cis-4-[(3-methoxy-4-methylphenyl)carbamoyl]cyclohexyl]-2,3-dihydro-1H-1,3-benzodiazol-4-yl}-1H-imidazole-2-carboxamide] | 7.10
COc1cc(NC(=O)[C@H]2CC[C@@H](n3c(=O)[nH]c4c(NC(=O)c5cn(C)cn5)cccc43)CC2)ccc1C [Example 319, 1-Methyl-N-{2-oxo-1-[cis-4-[(3-methoxy-4-methylphenyl)carbamoyl]cyclohexyl]-2,3-dihydro-1H-1,3-benzodiazol-4-yl}-1H-imidazole-4-carboxamide] | 7.69
COc1cc(NC(=O)[C@H]2CC[C@@H](n3c(=O)[nH]c4c(NC(=O)c5coc(N)n5)cccc43)CC2)ccc1C [Example 320, 2-Amino-N-{2-oxo-1-[cis-4-[(3-methoxy-4-methylphenyl)carbamoyl]cyclohexyl]-2,3-dihydro-1H-1,3-benzodiazol-4-yl}-1,3-oxazole-4-carboxamide] | 7.66
COc1cc(NC(=O)[C@H]2CC[C@@H](n3c(=O)[nH]c4c(NC(=O)c5ccnn5C)cccc43)CC2)ccc1C [Example 321, 1-Methyl-N-{2-oxo-1-[cis-4-[(3-methoxy-4-methylphenyl)carbamoyl]cyclohexyl]-2,3-dihydro-1H-1,3-benzodiazol-4-yl}-1H-pyrazole-5-carboxamide] | 8.24
O=c1[nH]c2ccccc2n1[C@H]1CC[C@@H](C(=O)Nc2ccc(F)cc2)CC1 [Example 322, Cis-N-(4-fluorophenyl)-4-(2-oxo-2,3-dihydro-1H-benzo[d]imidazol-1-yl)cyclohexanecarboxamide] | 5.58
COc1cc(NC(=O)[C@H]2CC[C@@H](n3c(=O)[nH]c4c(NCC(F)(F)F)cccc43)CC2)ccc1C [Example 323, Cis-N-(3-methoxy-4-methylphenyl)-4-{2-oxo-4-[(2,2,2-trifluoroethyl)amino]-2,3-dihydro-1H-1,3-benzodiazol-1-yl}cyclohexane-1-carboxamide] | 6.65
COc1cc(NC(=O)[C@H]2CC[C@@H](n3c(=O)[nH]c4c(NCC(F)F)cccc43)CC2)ccc1C [Example 324, Cis-4-{4-[(2,2-difluoroethyl)amino]-2-oxo-2,3-dihydro-1H-1,3-benzodiazol-1-yl}-N-(3-methoxy-4-methylphenyl)cyclohexane-1-carboxamide] | 7.01
